*1 amine or outer side, *2 acyl side, *3 side chain or, on linkers, in order; H or OH if unused. Where a SMILES comes first, the peptide text is derived from it. Bridges are numbered along the chain shown (N, C = ends). [ ]: non-standard residue; d: D form. The star is where a group is joined. X1 = COc1cc2cc(c1Cl)N(C)C(=O)C[C@H](OC(=O)[C@H](C)N(C)C(=O)CCSSC(C)CCC(=O)*)[C@]1(C)O[C@H]1[C@H](C)[C@@H]1C[C@@](O)(NC(=O)O1)[C@H](OC)/C=C/C=C(\C)C2; 1Nal = N[C@@H](Cc1cccc2ccccc12)C(=O)O; TBMB = c1c(C[*:1])cc(C[*:3])cc1C[*:2]; Tle = CC(C)(C)[C@H](N)C(=O)O; βAla = NCCC(=O)O; Sar = CNCC(=O)O
Legend:
HCC1806 xenograft = assay: In vivo efficacy of BT1718 in HCC1806 xenograft; parameters: species or system Mus Musculus; key to Best response at 10 mg/kg: CR complete response; PR partial response
Experimental: The objective of this study was to evaluate the in vivo anti-tumor efficacy of BT1718in treatment of HT1080, NCI-H292, NCI-H1975, MDA-MB-231, HCC1806, RPMI2650, HCT-15, HT-29 and SNU-16 xenograft in BALB/c nude mice.
The HT1080, NCI-H292, NCI-H1975, MDA-MB-231, HCC1806, RPMI2650, HCT-15, HT-29 and SNU-16 tumor cells were maintained in vitro as a monolayer culture in medium supplemented with 10% heat inactivated fetal bovine serum at 37° C. in an […]. The tumor cells will be routinely subcultured twice weekly by trypsin-EDTA treatment. The cells growing in an exponential growth phase will be harvested and counted for tumor inoculation.
Mouse was inoculated subcutaneously at the right flank with tumor cells for tumor development. The animals were randomized and treatment was started when the average tumor reaches certain volume for the efficacy study, the inoculating cell amounts and starting tumor size were shown as below in Table 9. The test article administration and the animal numbers in each group were shown in the experimental design in Table 10.
All the procedures related to animal handling, care and the treatment in the study were performed according to the guidelines of the Association for Assessment and Accreditation of Laboratory Animal Care (AAALAC). At the time of routine monitoring, the animals were daily checked for any effects of tumor growth and treatments on normal behavior such as mobility, food and water consumption (by looking only), body weight gain/loss (body weights were measured every day), eye/hair matting and any other abnormal effect as stated in the protocol. Death and observed clinical signs were recorded on the basis of the numbers of animals within each subset.
The major endpoint was to see if the tumor growth could be delayed or mice could be cured. Tumor size was measured three times weekly in two dimensions using a caliper, and the volume was expressed in mm^3 using the formula: V=0.5 a×b^2 where a and b are the long and short diameters of the tumor, respectively. The tumor size was then used for calculations of T/C value. The T/C value (in percent) is an indication of antitumor effectiveness; T and C are the mean volumes of the treated and control groups, respectively, on a given day.
TGI was calculated for each group using the formula: TGI (%)=[1−(Ti−T0)/(Vi−V0)]×100; Ti is the average tumor volume of a treatment group on a given day, T0 is the average tumor volume of the treatment group on the day of treatment start, Vi is the average tumor volume of the vehicle control group on the same day with Ti, and V0 is the average tumor volume of the vehicle group on the day of treatment start.
Summary statistics, including mean and the standard error of the mean (SEM), are provided for the tumor volume of each group at each time point.
Statistical analysis of difference in tumor volume among the groups was conducted on the data obtained at the best therapeutic time point after the final dose.
A one-way ANOVA was performed to compare tumor volume among groups, and when a significant F-statistics (a ratio of treatment variance to the error variance) was obtained, comparisons between groups were carried out with Games-Howell test. All data were analyzed using Prism. P<0.05 was considered to be statistically significant.

[1] = system: MT1-positive tumor xenograft models (e.g. HT1080 fibrosarcoma; HCC1806 triple negative breast cancer; SNU-16 gastric cancer); assay: Selection of MT1-positive tumor xenograft models; format: in vivo
Description: Efficacy in this model was reduced in the conjugates containing the least cleavable linkers.

For `COc1cc2cc(c1Cl)N(C)C(=O)C[C@H](OC(=O)[C@H](C)N(C)C(=O)CCSSC(C)CCC(=O)NCCC(=O)N(C)CC(=O)N(C)CC(=O)N(C)CC(=O)N(C)CC(=O)N(C)CC(=O)N(C)CC(=O)N(C)CC(=O)N(C)CC(=O)N(C)CC(=O)N(C)CC(=O)N[C@@H](C)C(=O)N[C@H]1CSCc3cc4cc(c3)CSC[C@H](NC(=O)[C@@H](C)NC(=O)[C@H](Cc3cccc5ccccc35)NC(=O)[C@H](CCC(=O)O)NC(=O)[C@H](CC(N)=O)NC(=O)[C@@H](C)NC1=O)C(=O)N[C@@H](CCC(=O)O)C(=O)N[C@@H](CC(=O)O)C(=O)N[C@@H](Cc1ccccc1)C(=O)N[C@@H](Cc1ccc(O)cc1)C(=O)N[C@@H](CC(=O)O)C(=O)N[C@@H](C(C)(C)C)C(=O)N[C@H](C(N)=O)CSC4)[C@]1(C)O[C@H]1[C@H](C)[C@@H]1C[C@@](O)(NC(=O)O1)[C@H](OC)/C=C/C=C(\C)C2` (stereo partly drawn) [BT1718] ({X1-βAla}-[Sar][Sar][Sar][Sar][Sar][Sar][Sar][Sar][Sar][Sar]AC[dA]NE[1Nal][dA]CEDFYD[Tle]C-NH2; linker 12-18-25 via TBMB (inferred)), the “Body Weight” value (HCC1806 xenograft; 1 mpk biw, day 0) was 22.5 ± 0.7 g, the “Tumor Volume” value (HCC1806 xenograft; 1 mpk biw, day 0) was 188 ± 23 mm^3 and the “Body Weight” value (HCC1806 xenograft; 1 mpk biw, day 2) was 22.8 ± 0.7 g. For the same compound, the “Tumor Volume” value (HCC1806 xenograft; 1 mpk biw, day 2) was 265 ± 53 mm^3, the “Body Weight” value (HCC1806 xenograft; 1 mpk biw, day 4) was 23.6 ± 0.6 g and the “Tumor Volume” value (HCC1806 xenograft; 1 mpk biw, day 4) was 428 ± 44 mm^3. The “Body Weight” value (HCC1806 xenograft; 1 mpk biw, day 7) was 24.2 ± 0.5 g, the “Tumor Volume” value (HCC1806 xenograft; 1 mpk biw, day 7) was 660 ± 85 mm^3 and the “Body Weight” value (HCC1806 xenograft; 1 mpk biw, day 9) was 24.0 ± 0.5 g. For the same compound, the “Tumor Volume” value (HCC1806 xenograft; 1 mpk biw, day 9) was 793 ± 122 mm^3, the “Body Weight” value (HCC1806 xenograft; 1 mpk biw, day 11) was 24.3 ± 0.6 g and the “Tumor Volume” value (HCC1806 xenograft; 1 mpk biw, day 11) was 882 ± 118 mm^3. The “Body Weight” value (HCC1806 xenograft; 1 mpk biw, day 14) was 24.8 ± 0.4 g, the “Tumor Volume” value (HCC1806 xenograft; 1 mpk biw, day 14) was 1169 ± 137 mm^3 and the “re-growth during dosing suspension” value (HCC1806 xenograft; 2 months dosing suspension period) was “no re-growth”. For the same compound, the “Body Weight” value (HCC1806 xenograft; 3 mpk biw, day 0) was 22.6 ± 1.0 g, the “Tumor Volume” value (HCC1806 xenograft; 3 mpk biw, day 0) was 190 ± 17 mm^3 and the “Body Weight” value (HCC1806 xenograft; 3 mpk biw, day 2) was 23.2 ± 0.9 g. The “Tumor Volume” value (HCC1806 xenograft; 3 mpk biw, day 2) was 259 ± 34 mm^3, the “Body Weight” value (HCC1806 xenograft; 3 mpk biw, day 4) was 22.6 ± 1.0 g and the “Tumor Volume” value (HCC1806 xenograft; 3 mpk biw, day 4) was 296 ± 41 mm^3. The “Body Weight” value (HCC1806 xenograft; 3 mpk biw, day 7) was 22.8 ± 1.4 g, the “Tumor Volume” value (HCC1806 xenograft; 3 mpk biw, day 7) was 276 ± 77 mm^3 and the “Body Weight” value (HCC1806 xenograft; 3 mpk biw, day 9) was 22.6 ± 1.6 g. For the same compound, the “Tumor Volume” value (HCC1806 xenograft; 3 mpk biw, day 9) was 323 ± 116 mm^3, the “Body Weight” value (HCC1806 xenograft; 3 mpk biw, day 11) was 23.2 ± 1.2 g and the “Tumor Volume” value (HCC1806 xenograft; 3 mpk biw, day 11) was 392 ± 126 mm^3. The “Body Weight” value (HCC1806 xenograft; 3 mpk biw, day 14) was 23.5 ± 1.1 g, the “Tumor Volume” value (HCC1806 xenograft; 3 mpk biw, day 14) was 527 ± 158 mm^3 and the “Body Weight” value (HCC1806 xenograft; 10 mpk biw, day 0) was 23.1 ± 0.6 g. The “Tumor Volume” value (HCC1806 xenograft; 10 mpk biw, day 0) was 186 ± 30 mm^3, the “Body Weight” value (HCC1806 xenograft; 10 mpk biw, day 2) was 22.2 ± 1.1 g and the “Tumor Volume” value (HCC1806 xenograft; 10 mpk biw, day 2) was 221 ± 35 mm^3. The “Body Weight” value (HCC1806 xenograft; 10 mpk biw, day 4) was 23.2 ± 0.9 g, the “Tumor Volume” value (HCC1806 xenograft; 10 mpk biw, day 4) was 185 ± 20 mm^3 and the “Body Weight” value (HCC1806 xenograft; 10 mpk biw, day 7) was 23.4 ± 0.8 g. For the same compound, the “Tumor Volume” value (HCC1806 xenograft; 10 mpk biw, day 7) was 142 ± 9 mm^3, the “Body Weight” value (HCC1806 xenograft; 10 mpk biw, day 9) was 22.9 ± 1.0 g and the “Tumor Volume” value (HCC1806 xenograft; 10 mpk biw, day 9) was 92 ± 2 mm^3. The “Body Weight” value (HCC1806 xenograft; 10 mpk biw, day 11) was 22.5 ± 1.2 g, the “Tumor Volume” value (HCC1806 xenograft; 10 mpk biw, day 11) was 84 ± 6 mm^3 and the “Body Weight” value (HCC1806 xenograft; 10 mpk biw, day 14) was 23.8 ± 0.7 g. The “Tumor Volume” value (HCC1806 xenograft; 10 mpk biw, day 14) was 67 ± 11 mm^3, the TGI (HCC1806 xenograft; HCC1806, 1 mpk, biw, day 14) was 8.6% and the “Tumor Volume” value (HCC1806 xenograft; HCC1806, 1 mpk, biw, day 14) was 1169 ± 137 mm^3. The TGI (HCC1806 xenograft; HCC1806, 3 mpk, biw, day 14) was 68.6%, the “Tumor Volume” value (HCC1806 xenograft; HCC1806, 3 mpk, biw, day 14) was 527 ± 158 mm^3 and the TGI (HCC1806 xenograft; HCC1806, 10 mpk, biw, day 14) was 111.1%. For the same compound, the “Tumor Volume” value (HCC1806 xenograft; HCC1806, 10 mpk, biw, day 14) was 67 ± 11 mm^3, the “Best response at 10 mg/kg” value (HCC1806 xenograft; HCC-1806, 10 mg/kg) was “CR” and the “Minimally Effective Dose IV BIW” value (HCC1806 xenograft; HCC-1806, dose leading to tumor-stasis) was under 10 mg/kg. For the same compound, the “tumor volume after regression” value (HCC1806 xenograft; after 2-3 weeks 10 mg/kg biw) was “below 50 mm3”, the tumor response ([1]; 10 mg/kg twice weekly) was “complete regressions in most models” and the minimally effective doses ([1]; weekly or twice weekly) was 3 to 10 mg/kg.

From patent US10441663B2, “Methods for treating cancer” (Bicycle Therapeutics Limited, priority 2016, dated 2019)
